What follows are compounds tested against T1, human GPR139 receptor (Homo sapiens, UniProt Q6DWJ6) (assay: Measurement of GPR139 Activation Via Calcium Signaling (FLIPR, T-REx-CHO cells)). Conditions: T-REx-CHO cells stably expressing human GPR139, 11-point dose response, 10 μM maximum concentration, read-out: GPR139 Potency (pEC50) (converted).
T1 construct: expressed in transfected cells; host or cells: T-REx-CHO (Thermo Fisher Scientific), doxycycline-induced
T1 sequence (Q6DWJ6 1-353): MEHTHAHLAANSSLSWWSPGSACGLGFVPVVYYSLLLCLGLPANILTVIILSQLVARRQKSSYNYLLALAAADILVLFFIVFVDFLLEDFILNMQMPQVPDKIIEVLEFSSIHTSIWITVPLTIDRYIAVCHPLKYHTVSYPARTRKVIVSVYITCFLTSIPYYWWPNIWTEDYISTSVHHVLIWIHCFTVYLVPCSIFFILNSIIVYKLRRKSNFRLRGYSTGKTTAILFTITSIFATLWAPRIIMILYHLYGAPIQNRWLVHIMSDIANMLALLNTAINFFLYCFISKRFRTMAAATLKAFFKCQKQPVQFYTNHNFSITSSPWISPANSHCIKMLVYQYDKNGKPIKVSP
Assay type: cell-based
Experimental: Measurement of GPR139 Activation Via Calcium Signaling
This cell-based assay measures the ability of compounds to activate GPR139 in stably transfected T-REx™-CHO cells. T-REx™-CHO cells (Thermo Fisher Scientific®) are stably expressed with human GPR139 receptor, whose expression is controlled by a tetracycline-inducible element. The cells are cultured in medium containing F-12K nutrient mixture-Kaighn's modification, TripleLE™ Express (1×)-phenol red, Dulbecco's phosphate-buffered saline (1×), 10% tetracycline-free FBS, Blasticidin S HCl (10 μg/mL) and Hygromycin B (200 μg/mL). The cells are introduced into the wells of a 384-well black clear bottom plate (Costar®) at 10,000 cells/well. GPR139 receptor expression is induced with 2 μg/mL doxycycline (Sigma D9891). The plate is allowed to stand at room temperature for 10-30 minutes and then incubated at 37° C. and 5% CO2 for 17 hours prior to assay.
Culture media is removed from cells and 45 μL of 1× calcium dye (2.5 mM) is added to each well and incubated at 37° C. and 5% CO2 for 40 minutes. The plate is removed from the incubator and allowed to stand at RT for 20 minutes without a plate cover prior to measurement of calcium signaling. The calcium dye is prepared by adding 10 mL of assay buffer (Hank's Balanced Salt Solution (1×), 1 mM HEPES at pH 7.4) to one vial of calcium dye (FLIPR® Calcium 5 Assay Kit; Molecular Devices) at room temperature, vortexing the mixture until homogenous, and transferring the dye to a 250 mL flask using 10 mL of assay, buffer to rinse the vial. The dye is subsequently transferred to a conical flask, which is filled to the 200 mL mark with assay buffer, and 1 mL of […] probenecid solution (142.68 mg/mL in 1M NaOH aq) is added.
Example compounds suspended in DMSO are received from compound management in microtiter plates (0.25 μL/well) and are diluted in assay buffer (25 μL). Following incubation of the cell plate, the Example compounds are added to the cells (11-point dose response, 10 μM maximum concentration) using a FLIPR® Tetra system (Molecular Devices) and fluorescence is measured continuously for 1 minute. EC50 curves are generated with a four-parameter logistic equation using GraphPad Prism® 6, and activation of GPR139 for each example compound is reported as pEC50.

Row | Compound | EC50
1 | COc1ccc([C@H](C)NC(=O)Cn2nc(C)c3cnn(C(C)(C)C)c3c2=O)cc1 [Example 9, (S)-2-(1-(tert-butyl)-4-methyl-7-oxo-1,7-dihydro-6H-pyrazolo[3,4-d]pyridazin-6-yl)-N-(1-(4-methoxyphenyl)ethyl)acetamide] | 0.0955 µM
2 | Cc1ccc([C@H](C)NC(=O)Cn2ncc3c(c(C)nn3C(C)C)c2=O)cc1 [Example 46, (S)-2-(1-isopropyl-3-methyl-4-oxo-1,4-dihydro-5H-pyrazolo[3,4-d]pyridazin-5-yl)-N-(1-(p-tolyl)ethyl)acetamide] | 0.0776 µM
3 | Cc1nn(CC(=O)N[C@@H](C)c2ccc(OC(F)(F)F)cc2)c(=O)c2cnn(C(C)C)c12 [Example 76, (S)-2-(1-isopropyl-7-methyl-4-oxo-1,4-dihydro-5H-pyrazolo[3,4-d]pyridazin-5-yl)-N-(1-(4-(trifluoromethoxy)phenyl)ethyl)acetamide] | 1.02 µM
4 | Cc1ccc([C@H](C)NC(=O)Cn2nc(C)c3c(cnn3C(C)C)c2=O)cc1 [Example 77, (S)-2-(1-isopropyl-7-methyl-4-oxo-1,4-dihydro-5H-pyrazolo[3,4-d]pyridazin-5-yl)-N-(1-(p-tolyl)ethyl)acetamide] | 0.0912 µM
5 | Cc1nn(CC(=O)N[C@@H](C)c2ccc(C(F)(F)F)cc2)c(=O)c2cnn(C3CC3)c12 [Example 78, (S)-2-(1-cyclopropyl-7-methyl-4-oxo-1,4-dihydro-5H-pyrazolo[3,4-d]pyridazin-5-yl)-N-(1-(4-(trifluoromethyl)phenyl)ethyl)acetamide] | 0.0794 µM
6 | Cc1nn(CC(=O)N[C@@H](C)c2ccc(OC(F)(F)F)cc2)c(=O)c2cnn(C3CC3)c12 [Example 79, (S)-2-(1-cyclopropyl-7-methyl-4-oxo-1,4-dihydro-5/1-pyrazolo[3,4-d]pyridazin-5-yl)-N-(1-(4-(trifluoromethoxy)phenyl)ethyl)acetamide] | 0.257 µM
7 | Cc1ccc([C@H](C)NC(=O)Cn2nc(C)c3c(cnn3C(C)C)c2=O)c(F)c1 [Example 83, (S)—N-(1-(2-fluoro-4-methylphenyl)ethyl)-2-(1-isopropyl-7-methyl-4-oxo-1,4-dihydro-5H-pyrazolo[3,4-d]pyridazin-5-yl)acetamide] | 0.0933 µM
8 | Cn1nc(C2CC2)c2c(=O)n(CC(=O)N3CCCC3c3ccc(Cl)cc3)ncc21 (stereo not drawn) [Example 84, 5-(2-(2-(4-chlorophenyl)pyrrolidin-1-yl)-2-oxoethyl)-3-cyclopropyl-1-methyl-1,5-dihydro-4H-pyrazolo[3,4-d]pyridazin-4-one] | 0.407 µM
9 | CC(C)n1ncc2c(=O)n(CC(=O)N[C@@H](C)c3ccc(C(F)(F)F)cc3)ncc21 [Example 86, (S)-2-(1-isopropyl-4-oxo-1,4-dihydro-5H-pyrazolo[3,4-d]pyridazin-5-yl)-N-(1-(4-(trifluoromethyl)phenyl)ethyl)acetamide] | 0.0832 µM
10 | CC(C)n1ncc2c(=O)n(CC(=O)N[C@@H](C)c3ccc(OC(F)(F)F)cc3)ncc21 [Example 87, (S)-2-(1-isopropyl-4-oxo-1,4-dihydro-5H-pyrazolo[3,4-d]pyridazin-5-yl)-N-(1-(4-(trifluoromethoxy)phenyl)ethyl)acetamide] | 0.126 µM
11 | Cc1ccc([C@H](C)NC(=O)Cn2ncc3c(cnn3C3CC3)c2=O)c(F)c1 [Example 90, (S)-2-(1-cyclopropyl-4-oxo-1,4-dihydro-5H-pyrazolo[3,4-d]pyridazin-5-yl)-N-(1-(2-fluoro-4-methylphenyl)ethyl)acetamide] | 0.0589 µM

Other lines, results leading:

Row | EC50 | Compound
12 | 0.0589 µM | Cc1ccc([C@H](C)NC(=O)Cn2ncc3c(cnn3C3CC3)c2=O)cc1 [Example 91, (S)-2-(1-cyclopropyl-4-oxo-1,4-dihydro-5H-pyrazolo[3,4-d]pyridazin-5-yl)-N-(1-(p-tolyl)ethyl)acetamide]
13 | 0.117 µM | Cc1ccc([C@H](C)NC(=O)Cn2ncc3c(c(C4CC4)nn3C(C)C)c2=O)c(F)c1 [Example 95, (S)-2-(3-cyclopropyl-1-isopropyl-4-oxo-1,4-dihydro-5H-pyrazolo[3,4-d]pyridazin-5-yl)-N-(1-(2-fluoro-4-methylphenyl)ethyl)acetamide]
14 | 0.501 µM | CC(C)n1nc(C2CC2)c2c(=O)n(CC(=O)N[C@@H](C)c3ccc(OC(F)(F)F)cc3)ncc21 [Example 96, (S)-2-(3-cyclopropyl-1-isopropyl-4-oxo-1,4-dihydro-5H-pyrazolo[3,4-d]pyridazin-5-yl)-N-(1-(4-(trifluoromethoxy)phenyl)ethyl)acetamide]
15 | 0.049 µM | Cc1ccc([C@H](C)NC(=O)Cn2ncc3c(c(C4CC4)nn3C(C)C)c2=O)cc1 [Example 97, (S)-2-(3-cyclopropyl-1-isopropyl-4-oxo-1,4-dihydro-5H-pyrazolo[3,4-d]pyridazin-5-yl)-N-(1-(p-tolyl)ethyl)acetamide]
16 | 0.275 µM | CC(C)n1nc(C2CC2)c2c(=O)n(CC(=O)N[C@@H](C)c3ccc(C(F)(F)F)cc3)ncc21 [Example 98, (S)-2-(3-cyclopropyl-1-isopropyl-4-oxo-1,4-dihydro-5H-pyrazolo[3,4-d]pyridazin-5-yl)-N-(1-(4-(trifluoromethyl)phenyl)ethyl)acetamide]
17 | 0.363 µM | Cc1nn(C(C)C)c2c(C)nn(CC(=O)N[C@@H](C)c3ccc(OC(F)(F)F)cc3)c(=O)c12 [Example 100, (S)-2-(1-isopropyl-3,7-dimethyl-4-oxo-1,4-dihydro-5H-pyrazolo[3,4-d]pyridazin-5-yl)-N-(1-(4-(trifluoromethoxy)phenyl)ethyl)acetamide]
18 | 0.282 µM | Cc1nn(C2CC2)c2cnn(CC(=O)N[C@@H](C)c3ccc(OC(F)(F)F)cc3)c(=O)c12 [Example 109, (S)-2-(1-cyclopropyl-3-methyl-4-oxo-1,4-dihydro-5H-pyrazolo[3,4-d]pyridazin-5-yl)-N-(1-(4-(trifluoromethoxy)phenyl)ethyl)acetamide]

Reference: patent US12370192B2, “Azole-fused pyridazin-3(2H)-one derivatives” (TAKEDA PHARMACEUTICAL COMPANY LIMITED, priority 2019, dated 2025)
